Experimental data as given in US20130143795A1, “METHOD OF TREATMENT OF HIV OR AIDS” (Adistem Ltd., priority 2010, published 2013).
“And” between values parts separate entries of the source, which are not always exact repeats. Identical values can stand only once.

Assays:
[1] = system: CXCR4 coreceptor-trophic HT/92/599 strain of HIV-1; test: Antiviral assay in fresh human PBMCs, HIV-1 HT/92/599; format: cell-based; details: for antiviral activity against HIV-1 HT/92/599 (T-cell tropic): concentrations up to a high test concentration of 500 μM
Method: (§1) The peptide Ac-LKKTETQ-OH was evaluated in fresh human peripheral blood mononuclear cells (PBMCs) against CXCR4 coreceptor-trophic HT/92/599 and the CCR5 coreceptor-trophic BaL subtype B strains of HIV-1. The peptide was added to the cells at 8 hours prior to infection and immediately prior to infection. The AZT control compound was evaluated in parallel with the peptide and yielded EC50 values of 8 and 6 nM against HIV-1HT/92/599 and values of 6 and 10 nM against HIV-1PaL.

[2] = system: CCR5 coreceptor-trophic BaL subtype B strain of HIV-1; test: Antiviral assay in fresh human PBMCs, HIV-1 BaL; format: cell-based; details: for antiviral activity against HIV-1 BaL (macrophage tropic): concentrations up to a high test concentration of 500 μM
Method: as §1

HIV = test: Pilot trial: HIV viral load (by PCR); format: in vivo
Method: (§2) The peptide Ac-LKKTETQ-OH was the active therapeutic agent investigated in a pilot trial on twenty similar HIV positive men and women, some who had progressed to severe AIDS.
(§3) Each man or women was injected subcutaneously with a composition comprising the peptide Ac-LKKTETQ-OH (10 mg), once a week for 12 weeks. Blood tests for CD4 and CD8-positive cells and HIV viral load (by PCR) and routine pathology were conducted at baseline, 8 weeks and 12 weeks. […] A small drop in blood glucose was seen but this was not determined to be significant.

Pilot trial: body weight = format: in vivo, human; details: HIV positive patients, 10 mg s.c. once a week, one value per patient (A-T)
Method: as §2, §3

[3] = Pilot trial: routine pathology and adverse effects; format: in vivo, human; details: 10 mg s.c. once a week for 12 weeks
Method: as §2, §3

[4] = system: CD4-positive white blood cell; test: Pilot trial: CD4-positive white blood cell counts; format: in vivo, human
Method: as §2, §3

[5] = system: CD8-positive white blood cell; test: Pilot trial: CD8-positive white blood cell counts; format: in vivo, human
Method: as §2, §3

[6] = HIV positive patients and those showing symptoms of AIDS
[7] = HIV positive patients, 10 mg s.c. once a week, 8 weeks, one value per patient (A-T)
[8] = HIV positive patients, 10 mg s.c. once a week, 12 weeks, one value per patient (A-T)

Molecule	EC50 ([1]; two values, evaluated in parallel with peptide added 8 hours prior to and immediately prior to infection, read-out: EC50 against HIV-1HT/92/599)	EC50 ([2]; two values, evaluated in parallel with peptide added 8 hours prior to and immediately prior to infection, read-out: EC50 against HIV-1PaL)	viral load (summary) (HIV; [6])	HIV Viral Load, 8 weeks (HIV; HIV positive patients, 10 mg s.c. once a week, 8 weeks, by PCR, one value per patient (A-T))	HIV Viral Load, 12 weeks (HIV; HIV positive patients, 10 mg s.c. once a week, 12 weeks, by PCR, one value per patient (A-T))	Weight, 8 weeks (Pilot trial: body weight; 8 weeks)	Weight, 12 weeks (Pilot trial: body weight; 12 weeks)	adverse effect [3]	Hemoglobin levels, Creatinine, ALT, AST, Alkaline Phos, Bilirubin, GGT, Albumin, Total Protein and globulin tests ([3]; baseline, 8 and 12 weeks)	blood glucose ([3]; not determined to be significant)	antiviral activity against HIV-1 HT/92/599 (T-cell tropic) ([1]; listed as SEQ ID NO: 1)	antiviral activity against HIV-1 HT/92/599 (T-cell tropic) ([1]; listed as SEQ ID NO:1)	CD4 positive white blood cell counts (summary) [4, 6]	CD4-positive white blood cell count, 8 weeks [4, 7]	CD4-positive white blood cell count, 12 weeks [4, 8]	antiviral activity against HIV-1 BaL (macrophage tropic) ([2]; listed as SEQ ID NO: 1)	antiviral activity against HIV-1 BaL (macrophage tropic) ([2]; listed as SEQ ID NO:1)	CD8 positive white blood cell counts (summary) [5, 6]	CD8-positive white blood cell count, 8 weeks [5, 7]	CD8-positive white blood cell count, 12 weeks [5, 8]
Cc1cn([C@H]2C[C@H](N=[N+]=[N-])[C@@H](CO)O2)c(=O)[nH]c1=O [AZT, reference compound]	8 nM and 6 nM	6 nM and 10 nM	–	–	–	–	–	–	–	–	–	–	–	–	–	–	–	–	–	–
Ac-LKKTETQ-OH [Ac-LKKTETQ-OH]	–	–	decreased viral load significantly	undetectable (9×) and 28410 copies/ml and 450 copies/ml and 8214 copies/ml and 17616 copies/ml and 15201 copies/ml and 145 copies/ml and 12004 copies/ml and 8781 copies/ml and 200 copies/ml and 98687 copies/ml and 24 copies/ml	undetectable (19×) and 5151 copies/ml	92 and 52 and 59 and 71 and 82 and 79 (2×) and 72 (2×) and 60.5 and 50.5 and 58 and 71.5 and 68.5 and 61 and 56 and 55 and 70 and 78 (2×)	92 and 52 and 72 (4×) and 82 and 79 and 71 (2×) and 51 and 65 and 80 and 69 and 60 and 55 and 58 and 70.5 and 78.5 (2×)	No adverse effect	did not show anything remarkable	small drop	no effect	did not demonstrate antiviral activity	increased	816 and 415 and 158 and 407 and 456 and 477 and 348 and 381 and 439 and 301 and 335 and 543 and 428 and 466 (2×) and 259 and 471 and 300 and 316 and 602	879 and 604 and 175 and 425 and 625 and 662 and 404 and 498 and 510 and 424 and 452 and 749 and 616 and 602 and 368 and 469 and 571 and 430 and 416 and 675	no effect	did not demonstrate antiviral activity	increased	980 and 360 and 1310 and 1379 and 1044 and 1296 and 959 and 2120 and 866 and 773 and 594 (2×) and 606 and 939 and 617 and 648 and 456 and 1108 and 1125	1330 and 459 and 1718 and 1394 and 1339 and 1226 and 1190 and 2647 and 958 and 800 and 712 and 893 and 983 and 1034 and 880 and 890 and 521 and 1384 and 1201 and 660
